Test results taken from the supplement of paper PMC10331698.
± gives the standard deviation of the averaged measurements.

What was measured:
Experiment in all cases: level (log10 ratio to DMSO vehicle control); higher = higher biomarker level / cell amount than vehicle control
Conditions in all cases: in DMSO
[1] = compound: CNS(=O)(=O)C(F)(F)C(F)(F)C(F)(F)C(F)(F)C(F)(F)C(F)(F)C(F)(F)C(F)(F)F [N-Methylperfluorooctanesulfonamide]
Experimental: (§1)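 BioMAP Diversity Plus panel of 12 human primary cell co-culture systems (3C, 4H, LPS, SAg, BT, BF4T, BE3C, CASM3C, HDF3CGF, KF3CT, MyoF, Mphg). Compounds were added 1 h before stimulation and left for 24 h (MyoF 48 h; BT 72 h for soluble read-outs or 6 d for IgG). Biomarkers were read by ELISA, cytotoxicity by SRB, PBMC viability and proliferation by Alamar Blue. Each well value was divided by the mean of 8 DMSO control wells on the same plate and log10 transformed; duplicate blinded samples were tested at 4 concentrations.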

Perfluorohexanoic acid = compound: O=C(O)C(F)(F)C(F)(F)C(F)(F)C(F)(F)C(F)(F)F [Perfluorohexanoic acid]
Experimental: as §1

[2] = compound: O=P(O)(O)CCC(F)(F)C(F)(F)C(F)(F)C(F)(F)C(F)(F)C(F)(F)C(F)(F)C(F)(F)F [((Perfluorooctyl)ethyl)phosphonic acid]
Experimental: as §1

[3] = compound: O=C(O)CCC(F)(F)C(F)(F)C(F)(F)C(F)(F)C(F)(F)F [2H,2H,3H,3H-Perfluorooctanoic acid]
Experimental: as §1

1H,1H-Heptafluorobutanol = compound: OCC(F)(F)C(F)(F)C(F)(F)F [1H,1H-Heptafluorobutanol]
Experimental: as §1

[4] = compound: O=C(O)C(F)(F)C(F)(F)C(F)(F)C(F)(F)C(F)(F)C(F)(F)C(F)(F)C(F)(F)C(F)(F)C(F)(F)C(F)(F)C(F)(F)F [Perfluorotridecanoic acid]
Experimental: as §1

Test System	level (log10) ([1]; 6700 nM)	level (log10) ([1]; 20000 nM)	level (log10) ([1]; 60000 nM)	level (log10) (Perfluorohexanoic acid; 6700 nM)	level (log10) (Perfluorohexanoic acid; 20000 nM)	level (log10) (Perfluorohexanoic acid; 60000 nM)	level (log10) ([2]; 6700 nM)	level (log10) ([2]; 20000 nM)	level (log10) ([2]; 60000 nM)	level (log10) ([3]; 6700 nM)	level (log10) ([3]; 20000 nM)	level (log10) ([3]; 60000 nM)	level (log10) (1H,1H-Heptafluorobutanol; 6700 nM)	level (log10) (1H,1H-Heptafluorobutanol; 20000 nM)	level (log10) (1H,1H-Heptafluorobutanol; 60000 nM)	level (log10) ([4]; 1500 nM)	level (log10) ([4]; 4400 nM)	level (log10) ([4]; 13000 nM)	level (log10) ([4]; 40000 nM)
BE3C:CXCL9/MIG	0.0125 ± 0.016	0.009 ± 0.018	0.021 ± 0.028	0.005 ± 0.0014	0 ± 0.0099	0.001 ± 0.0099	0.0165 ± 0.0064	0.011 ± 0.0057	0.013 ± 0.021	-0.003	-0.008 ± 0.0057	0.0005 ± 0.0035	-0.001	0.0025 ± 0.0035	0.007 ± 0.0028	-0.0015 ± 0.015	-0.0045 ± 0.0035	-0.014 ± 0.0099	-0.0125 ± 0.013
LPS:CXCL8/IL-8	-0.007 ± 0.0085	-0.003 ± 0.016	-0.0025 ± 0.019	0.0035 ± 0.016	0.011 ± 0.0028	0.0575 ± 0.0035	-0.021 ± 0.021	-0.0255 ± 0.011	-0.04 ± 0.0057	0.054 ± 0.034	0.0715 ± 0.09	0.121 ± 0.11	0.0085 ± 0.013	-0.006	-0.025 ± 0.0014	-0.011 ± 0.041	-0.058 ± 0.041	-0.0065 ± 0.042	0.016 ± 0.11
BE3C:CD54/ICAM-1	0.0055 ± 0.0021	0.0255 ± 0.0021	0.016 ± 0.0071	0.0065 ± 0.00071	-0.0145 ± 0.0064	-0.014 ± 0.013	-0.0275 ± 0.00071	-0.024	0.0045 ± 0.012	-0.0065 ± 0.0078	-0.0085 ± 0.005	-0.0155 ± 0.011	-0.0035 ± 0.0092	-0.0105 ± 0.00071	0.0085 ± 0.011	0.0015 ± 0.04	-0.0285 ± 0.015	-0.011 ± 0.0085	0.0035 ± 0.0021
BE3C:CD87/uPAR	0.0125 ± 0.015	0.0575 ± 0.061	0.083 ± 0.011	-0.002 ± 0.0085	-0.0105 ± 0.00071	0.0205 ± 0.00071	0.0235 ± 0.025	0.04 ± 0.035	0.079 ± 0.038	-0.0085 ± 0.0064	0.005 ± 0.033	0.0255 ± 0.037	-0.0115 ± 0.0092	0.032 ± 0.018	0.0015 ± 0.021	0.012 ± 0.038	-0.013 ± 0.0071	0.006 ± 0.018	0.0335 ± 0.03
BF4T:MMP-3	0.0015 ± 0.046	0.012 ± 0.052	0.044 ± 0.064	0.003 ± 0.024	-0.0095 ± 0.00071	0.0295 ± 0.043	-0.013 ± 0.02	0.009 ± 0.011	0.014 ± 0.079	-0.0015 ± 0.019	0.0025 ± 0.0035	0.0235 ± 0.066	0.004 ± 0.016	-0.0135 ± 0.012	0.0055 ± 0.04	0.042 ± 0.054	-0.0155 ± 0.061	0.0115 ± 0.032	0.0155 ± 0.012
LPS:sTNF-alpha	0.0045 ± 0.073	-0.012 ± 0.1	0.0085 ± 0.13	-0.009 ± 0.0014	-0.0005 ± 0.021	-0.0515 ± 0.0021	0.0165 ± 0.088	0.008 ± 0.1	-0.004 ± 0.18	-0.017 ± 0.0014	-0.0165 ± 0.005	-0.014 ± 0.0085	0.005	0.0015 ± 0.019	-0.0155 ± 0.032	-0.0185 ± 0.0092	-0.016 ± 0.018	-0.0375 ± 0.025	-0.0485 ± 0.021
BF4T:PAI-I	0.0005 ± 0.018	0.0015 ± 0.028	0.0285 ± 0.033	0.011	0.004 ± 0.0028	0.0145 ± 0.0064	0.003 ± 0.0042	0.0055 ± 0.011	0.016 ± 0.021	-0.005 ± 0.014	-0.0155 ± 0.016	-0.024 ± 0.014	-0.015 ± 0.0042	-0.009	0.0025 ± 0.028	0.0025 ± 0.028	0.005 ± 0.017	0.007 ± 0.02	0.0235 ± 0.0021
LPS:CD62E/E-Selectin	-0.024 ± 0.011	0.01 ± 0.02	0.03 ± 0.018	-0.01 ± 0.0042	-0.0065 ± 0.012	-0.003 ± 0.0028	0.0085 ± 0.018	-0.0145 ± 0.015	-0.012 ± 0.0057	0.0405 ± 0.029	0.022 ± 0.028	0.027 ± 0.021	0.0035 ± 0.013	0.001 ± 0.013	-0.0035 ± 0.0092	0.004 ± 0.02	0.0025 ± 0.028	-0.002 ± 0.0085	-0.0065 ± 0.005
3C:CXCL8/IL-8	-0.0035 ± 0.0078	0.0575 ± 0.012	0.064 ± 0.0028	-0.006 ± 0.0042	0.005 ± 0.0057	0.0635 ± 0.037	0.0315 ± 0.019	0.03 ± 0.018	0.0685 ± 0.0092	-0.032 ± 0.075	0.005 ± 0.0042	0.0265 ± 0.0092	0.0005 ± 0.067	-0.0055 ± 0.079	0.0185 ± 0.093	0.017 ± 0.025	-0.01 ± 0.017	-0.144 ± 0.19	-0.715 ± 0.14
BF4T:CCL26/Eotaxin-3	-0.203 ± 0.005	-0.199 ± 0.015	-0.196 ± 0.047	0.0135 ± 0.015	0.005 ± 0.024	0.0115 ± 0.011	-0.084 ± 0.0099	-0.157 ± 0.018	-0.14 ± 0.056	-0.0305 ± 0.013	-0.0615 ± 0.029	-0.0695 ± 0.11	0.0275 ± 0.04	0.0405 ± 0.022	0.0315 ± 0.013	-0.0035 ± 0.052	-0.0725 ± 0.022	-0.089 ± 0.04	-0.0555 ± 0.026
BF4T:CCL2/MCP-1	-0.022 ± 0.011	-0.049 ± 0.025	-0.0785 ± 0.083	-0.0045 ± 0.0021	-0.012 ± 0.024	-0.0015 ± 0.052	0.0125 ± 0.019	0.0295 ± 0.026	0.061 ± 0.02	0.0285 ± 0.015	-0.011 ± 0.031	-0.0235 ± 0.096	-0.002 ± 0.018	0.003 ± 0.057	-0.0135 ± 0.0021	0.025 ± 0.0028	0.0195 ± 0.028	0.035 ± 0.0042	0.0175 ± 0.013
BF4T:CXCL8/IL-8	-0.045 ± 0.03	-0.034 ± 0.028	-0.14 ± 0.03	-0.0055 ± 0.025	0.0155 ± 0.0078	0.0415 ± 0.042	0.0075 ± 0.012	0.026 ± 0.017	0.0325 ± 0.0092	0.0095 ± 0.035	0.033 ± 0.047	0.0645 ± 0.043	0.019 ± 0.071	0.03 ± 0.071	0.034 ± 0.089	0.023 ± 0.031	0.005 ± 0.025	0.0175 ± 0.019	0.028 ± 0.016
LPS:CCL2/MCP-1	-0.0135 ± 0.0035	0.0125 ± 0.0021	0.006 ± 0.021	-0.0035 ± 0.00071	-0.008 ± 0.027	-0.0045 ± 0.018	-0.0075 ± 0.005	-0.0255 ± 0.0092	-0.046 ± 0.016	0.017 ± 0.011	0.018 ± 0.044	0.0255 ± 0.043	-0.0125 ± 0.018	-0.0055 ± 0.0035	-0.001 ± 0.017	0.005 ± 0.071	0.0315 ± 0.032	0.0145 ± 0.0078	0.0155 ± 0.029
SAg:CD40	-0.016 ± 0.02	-0.0415 ± 0.012	-0.0695 ± 0.025	0.0065 ± 0.016	-0.0145 ± 0.012	-0.0095 ± 0.021	-0.0305 ± 0.0078	-0.0405 ± 0.018	-0.136 ± 0.025	-0.0325 ± 0.054	-0.025 ± 0.052	-0.034 ± 0.048	-0.011 ± 0.018	0.0045 ± 0.0092	0.0175 ± 0.074	-0.021 ± 0.017	-0.071 ± 0.0057	-0.0705 ± 0.06	-0.497 ± 0.044
3C:CD87/uPAR	-0.0125 ± 0.059	-0.052 ± 0.011	-0.0055 ± 0.032	-0.0065 ± 0.0035	-0.0115 ± 0.00071	-0.01 ± 0.0099	0.0455 ± 0.043	0.071 ± 0.025	0.0885 ± 0.059	-0.0155 ± 0.043	-0.0055 ± 0.016	-0.021 ± 0.023	-0.011 ± 0.025	0.0085 ± 0.023	0.026 ± 0.021	0.065 ± 0.025	0.0355 ± 0.039	0.066 ± 0.011	0.059 ± 0.016
